For one test, the system named is Enterobacter aerogenes. To be noted: MIC assay, n=3. Here is the method: (§1) MIC assays were performed using the broth microdilution method as previously described in Wiegand et al. Agar and broth dilution methods to determine the minimal inhibitory concentration (MIC) of antimicrobial substances. Nat. Protoc. 3, 163 (2008) (28), except that 0.1% arabinose (for P. aeruginosa) or 100 μM IPTG (for E. aerogenes) was added to induce dcas9 expression, and K. pneumoniae cultures were shaken to reduce clumping. Three biological replicates were grown for MIC assays. Growth curves shown in FIG. 3 were set up in exactly the same manner as the MIC assays, except that cultures were grown with agitation in a plate reader (BioTek) for ˜16 hrs. P-values for comparing MICs between control sgRNA and folA sgRNA strains were obtained using an unpaired two-tailed t-test with Welch's correction to account for unequal variances between samples and calculated using GraphPad Prism 7.0e.

Another test has as its system Klebsiella pneumoniae. Conditions: MIC assay, n=3. Here is the method:
as §1

The test system of test [1] is pathogenic Gammaproteobacteria associated with antibiotic resistance.
Description: MIC assays were performed using the broth microdilution method as previously described in Wiegand et al. Agar and broth dilution methods to determine the minimal inhibitory concentration (MIC) of antimicrobial substances. […] 3, 163 (2008) (28), except that 0.1% arabinose (for P. aeruginosa) or 100 μM IPTG (for E. aerogenes) was added to induce dcas9 expression, and K. pneumoniae cultures were shaken to reduce clumping. Three biological replicates were grown for MIC assays. […] P-values for comparing MICs between control sgRNA and folA sgRNA strains were obtained using an unpaired two-tailed t-test with Welch's correction to account for unequal variances between samples and calculated using GraphPad Prism 7.0e.

For the compound `COc1cc(Cc2cnc(N)nc2N)cc(OC)c1OC` [trimethoprim], the “sensitivity to trimethoprim after CRISPRi knockdown of folA” value in the test on Enterobacter aerogenes and with Klebsiella pneumoniae was “increased sensitivity” each time. Further, the “growth of the folA knockdown strains” value in test [1] (trimethoprim concentrations below the MIC for the wild type bacteria, data not shown) is given as “completely inhibited growth”. Also, the “shift of the minimal inhibitory concentration (MIC)” value in test [1] ({}) is reported as 2-4 fold.

(Values after patent US12018258B2, “Mobile-CRISPRi plasmids and related methods” (CZ Biohub SF, LLC, priority 2019, dated 2024).)
